The record followed here is ChEMBL document CHEMBL5260828, “Amphiphilic glycoconjugates as potential anti-cancer chemotherapeutics” (Eur J Med Chem, 2018).

Data set [1] in a line: Cytotoxicity against human HEK293F cells. Format: toxicity, cell-based.
Another data set deals with MKN-45. Put plainly: Cytotoxicity against human MKN-45 cells. Format: functional, cell-based.
Data set [2] relates to ACHN. Put plainly: Cytotoxicity against human ACHN cells. In kind it is functional, cell-based.
Data set [3] deals with HeLa. The experiment in a line: Cytotoxicity against human HeLa cells. Format: functional, cell-based.
For data set [4], the system named is ACHN. Put plainly: Cytotoxicity against human ACHN cells assessed as cell viability. Format: functional.
The test system of data set [5] is ACHN. Put plainly: Cytotoxicity against human ACHN cells assessed as cell viability at 5 mM in presence of paclitaxel. In kind it is functional. The following applies: read-out: Activity.
The next data set deals with A549. The experiment in a line: Cytotoxicity against human A549 cells assessed as inhibition of cell growth by measuring its effective dose. In kind it is functional. As to conditions: read-out: ED50 (the source's name).
The test system of another data set is SK-OV-3. The experiment in a line: Cytotoxicity against human SK-OV-3 cells assessed as inhibition of cell growth by measuring its effective dose. In kind it is functional. The following applies: read-out: ED50 (the source's name).
The subject of another data set is SK-MEL-2. Put plainly: Cytotoxicity against human SK-MEL-2 cells assessed as inhibition of cell growth by measuring its effective dose. Format: functional. The following applies: read-out: ED50 (the source's name).
In the next data set the test system is XF498. Put plainly: Cytotoxicity against human XF498 cells assessed as inhibition of cell growth by measuring its effective dose. In kind it is functional. The following applies: read-out: ED50 (the source's name).
Another data set concerns HCT-15. The experiment in a line: Cytotoxicity against human HCT-15 cells assessed as inhibition of cell growth by measuring its effective dose. Format: functional. The following applies: read-out: ED50 (the source's name).
The next data set has as its system P388. Put plainly: Cytotoxicity against mouse P388 cells. The following applies: Mus musculus, P388; read-out: IC50. Format: functional, cell-based.
Data set [6] has as its system L1210. The experiment in a line: Cytotoxicity against mouse L1210 cells. Format: functional, cell-based.
Another data set deals with MCF7. Put plainly: Growth inhibition of human MCF7 cells incubated for 72 hrs by sulforhodamine B staining assay. In kind it is functional. For orientation: The SRB assay estimates cell density from bound dye.
The nature of data set [7]: Growth inhibition of mouse Lewis lung carcinoma cell line incubated for 72 hrs by sulforhodamine B staining assay. Format: functional.
Data set [8] has as its system L1210. The experiment in a line: Growth inhibition of mouse L1210 cells incubated for 72 hrs by sulforhodamine B staining assay. In kind it is functional.
The next data set relates to NCI/ADR-RES. Put plainly: Growth inhibition of human multi-drug resistant MCF7/Adr cells incubated for 72 hrs by sulforhodamine B staining assay. Format: functional.
The subject of data set [9] is MDA-MB-231. Put plainly: Cytotoxicity against human MDA-MB-231 cells assessed as cell growth inhibition incubated for 48 hrs by crystal violet staining based spectrofluorimeter assay. In kind it is functional. The following applies: MDA-MB-231, 48 h.
Data set [10] has as its system MDA-MB-231. The experiment in a line: Inhibition of cell migration in human MDA-MB-231 cells incubated upto 48 hrs by inverted microscopic analysis. In kind it is functional.
The test system of data set [11] is HeLa. The experiment in a line: Cytotoxicity against human HeLa cells assessed as inhibition of cell growth incubated for 24 hrs by MTT assay. In kind it is functional, cell-based. Background: Tetrazolium dyes change colour on reduction, which living cells bring about.
The next data set deals with Ca-Ski. The experiment in a line: Cytotoxicity against human Ca-Ski cells assessed as inhibition of cell growth incubated for 24 hrs by MTT assay. In kind it is functional, cell-based.
Another data set concerns MOLT-4. Put plainly: Cytotoxicity against human MOLT-4 cells. In kind it is functional, cell-based.
Data set [12] relates to T-24. Put plainly: Cytotoxicity against human T24 cells assessed as cell viability. Format: functional.
Data set [13] relates to T-24. Put plainly: Cytotoxicity against human T24 cells assessed as cell viability at 12.5 uM in presence of doxorubicin. Format: functional. As to conditions: read-out: Activity.
Data set [14] in a line: Antimitotic activity against human U373 cells assessed as inhibition of cell proliferation by measuring inhibitory dose incubated for 48 hrs by [3H]-thymidine incorporation based liquid scintillation counting method. Format: functional. The following applies: U373 MG, read-out: ID50 (the source's name).
The nature of data set [15]: Antimitotic activity against rat Astrocyte cells assessed as inhibition of cell proliferation by measuring inhibitory dose by [3H]-thymidine incorporation based […]. In kind it is functional. The following applies: read-out: ID50 (the source's name). (In general: Uptake of a labelled nucleoside into DNA is a usual measure of proliferation.)
The nature of data set [16]: Antimitotic activity against rat Astrocytoma cell assessed as inhibition of cell proliferation by measuring inhibitory dose by [3H]-thymidine incorporation based […]. Format: functional. The following applies: read-out: ID50 (the source's name).
In another data set the test system is N2a. The experiment in a line: Antimitotic activity against mouse Neuro2a cells assessed as inhibition of cell proliferation by measuring inhibitory dose by [3H]-thymidine incorporation based […]. Format: functional. The following applies: read-out: ID50 (the source's name).
A short description of data set [17]: Antimitotic activity against rat RN 22 cells assessed as inhibition of cell proliferation by measuring inhibitory dose by [3H]-thymidine incorporation based […]. Format: functional. As to conditions: read-out: ID50 (the source's name).
Data set [18] in a line: Cytotoxicity against mouse BV-2 cells assessed as inhibition of cell growth incubated for 24 hrs by CTG luminescence assay. In kind it is toxicity, cell-based.
The nature of data set [19]: Cytotoxicity against rat Highly aggressively proliferating immortalized Microglia cells assessed as inhibition of cell growth incubated for 24 hrs by CTG luminescence assay. Format: toxicity, cell-based.
For another data set, the system named is MDA-MB-435. The experiment in a line: Inhibition of cell migration in human MDA-MB-435 cells incubated for 24 hrs by hematoxylin staining based assay. As to conditions: MDA-MB-435, 24 h. In kind it is functional.

≈ marks a conversion by molar mass, not a printed value.

Consider `CCCCCCCC(=O)O[C@H]1[C@H](OC[C@H](O)[C@H](O)[C@@H](O)[C@@H](O)CO)O[C@H](COC(=O)CCCCC)[C@@H](OC(=O)CCCCC)[C@@H]1OC(=O)CCCCC`, for which the IC50 in [1] stood at 18.1 µM; with MKN-45, 14.9 µM; in the data set with ACHN [2], 17 µM; with HeLa [3], 16.7 µM. The Activity with ACHN [4] turned out to be 63.8%. For the same compound, the viability at 5000 µM in the data set with ACHN [5] came out at 40.6%.
`CCCCCCCCCCCCCCCCOC[C@H](O)COC1[C@@H](O)[C@H](O)[C@@H](O)[C@@H]1O`: the EC50 in the data set with A549, in the data set with SK-OV-3, in the data set on SK-MEL-2, in the data set with XF498 and in the data set on HCT-15 was 4.3 µg/mL (≈ 9.58 µM) in each case.
Turning to `C\C(Cl)=C/C(Cl)=C/C=C/C=C/C=C/C=C/C(O)=C1\C(=O)[C@H](CC(N)=O)N([C@@H]2OC[C@@H](O)[C@H](O)[C@H]2O[C@@H]2OC[C@@H](O[C@@H]3O[C@H](C)[C@@H](O)[C@@H]3O)[C@@H](O)[C@@H]2O)C1=O` [AURANTOSIDE B], the IC50 in the data set on P388 is 3.2 µg/mL (≈ 3.98 µM); in the data set with L1210 [6], 3.3 µg/mL (≈ 4.11 µM).
By GI50 is commonly meant the concentration that inhibits growth by half. A low value points to more potent growth inhibition. For `CCCCCCCCCCCCCCCCOC[C@H](CO[C@H]1C[C@@H](O)[C@H](O)[C@@H](CO)O1)OC`, the 50% growth inhibitory concentration (GI50) was 6.93 µM in the data set with MCF7, 11.1 µM in data set [7], 7.09 µM in the data set with L1210 [8] and 12.8 µM in the data set on NCI/ADR-RES.
With `CC(=O)OC[C@H]1O[C@H]2O[C@@H](C)CCCCCC/C=C\CCCCCCCC(=O)O[C@@H]3[C@@H](O)[C@H](O[C@@H]2[C@@H](O)[C@@H]1O)O[C@H](COC(C)=O)[C@H]3O`, the IC50 in the data set with MDA-MB-231 [9] is 21.7 µM; with HeLa [11], 12.2 µg/mL (≈ 17.8 µM); in the data set with Ca-Ski, 25.3 µg/mL (≈ 36.8 µM). The “inhibition (INH)” value in the data set on MDA-MB-231 [10] worked out at 41.5%.
As for `CCCCCCCC(=O)O[C@H]1[C@H](OC[C@H](O)[C@@H](O)[C@@H](O)[C@H](O)[C@H](O)CO)O[C@H](COC(=O)CCCCC)[C@@H](OC(=O)CCCCC)[C@@H]1OC(=O)CCCCC`, the IC50 in [1] came to 21.8 µM; with MKN-45, 16 µM; in the data set with MOLT-4, 8.1 µM. Further, the Activity in the data set on T-24 [12] came to 57.3%. Also, in the data set with T-24 [13], the viability at 12.5 µM was 36.9%.
`CCCCCCCCO[C@H]1O[C@H](COCC(CO)(CO)CO)[C@@H](O)[C@H](O)[C@H]1NC(C)=O`: in data set [14], the IC50 came to 43 µM.
Turning to `CO[C@@H]1O[C@H](CO)[C@@H](O[C@@H]2O[C@H](CO)[C@H](O)[C@H](O[C@H]3O[C@H](CO)[C@H](O)[C@H](O)[C@H]3NC(C)=O)[C@H]2O)[C@H](O[C@@H]2O[C@@H](C)[C@@H](O)[C@@H](O)[C@@H]2O)[C@H]1O`, the IC50 (in data set [15]; in data set [16]; with N2a; in data set [17]) was 24 µM throughout.
As to `CCCCCCC[C@@H](CC(=O)N[C@H](CO)CC(C)C)OC(=O)C[C@H](CCCCCCC)OC(=O)C[C@H](CCCCCCC)O[C@@H]1O[C@@H](C)[C@H](O)[C@@H](O)[C@H]1O`, the IC50 at 24 h in data set [18] is 6.9 µM; in data set [19], 22 µM.
`CCCCCCCCCCCCCCCCOCC(COC1O[C@H](CO)[C@@H](O[C@@H]2O[C@H](CO)[C@H](O)[C@H](O)[C@H]2O)[C@H](O)[C@H]1O)OC` (some centres undefined) had an IC50 with MDA-MB-435 of 300 nM.
